This is an account of results in US11306092B2, “Amino indole compounds useful as TLR inhibitors” (BRISTOL-MYERS SQUIBB COMPANY, priority 2017, dated 2022).

What all share (format): cell-based
The target in one assay is T1, human TLR8 (Homo sapiens, UniProt Q9NR97).
T1 construct: host or cells: HEK-Blue cells
T1 sequence (Q9NR97 27-1041): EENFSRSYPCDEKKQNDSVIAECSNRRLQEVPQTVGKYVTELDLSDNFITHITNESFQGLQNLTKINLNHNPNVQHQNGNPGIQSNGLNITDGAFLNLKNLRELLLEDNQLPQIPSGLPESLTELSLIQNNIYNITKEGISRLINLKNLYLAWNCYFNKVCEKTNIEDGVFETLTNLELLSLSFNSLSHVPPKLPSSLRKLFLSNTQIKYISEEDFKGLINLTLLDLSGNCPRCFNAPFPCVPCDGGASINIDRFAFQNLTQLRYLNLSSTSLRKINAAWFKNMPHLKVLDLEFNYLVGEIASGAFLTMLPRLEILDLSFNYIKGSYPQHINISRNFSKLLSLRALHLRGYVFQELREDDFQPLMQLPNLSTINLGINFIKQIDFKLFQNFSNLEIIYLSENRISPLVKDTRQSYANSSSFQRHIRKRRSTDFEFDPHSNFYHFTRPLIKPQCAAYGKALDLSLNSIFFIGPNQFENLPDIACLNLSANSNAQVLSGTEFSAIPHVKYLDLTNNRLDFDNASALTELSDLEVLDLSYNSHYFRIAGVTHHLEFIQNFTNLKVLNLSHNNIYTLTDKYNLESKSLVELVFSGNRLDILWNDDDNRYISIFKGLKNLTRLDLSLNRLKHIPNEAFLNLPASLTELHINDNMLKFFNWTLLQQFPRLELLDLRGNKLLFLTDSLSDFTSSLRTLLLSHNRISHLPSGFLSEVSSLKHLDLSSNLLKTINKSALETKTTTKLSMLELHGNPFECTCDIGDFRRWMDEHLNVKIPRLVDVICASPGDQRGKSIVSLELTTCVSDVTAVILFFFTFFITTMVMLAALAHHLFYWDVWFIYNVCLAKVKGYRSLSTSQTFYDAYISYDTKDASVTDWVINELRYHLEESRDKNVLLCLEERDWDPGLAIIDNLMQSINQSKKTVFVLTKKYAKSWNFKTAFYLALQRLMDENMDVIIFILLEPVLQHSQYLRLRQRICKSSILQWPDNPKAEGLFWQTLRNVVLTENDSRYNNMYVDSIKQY
Nature of the assay: TLR8 inhibition reporter assay (HEK-Blue SEAP reporter). The settings on record: HEK-Blue cells overexpressing human TLR8; R848 15.9 μM; 22 hour incubation. The method, boiled down: (§1)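 Human TLR7/8/9 HEK-Blue reporter lines; dose range 0.05 nM–50 μM; 30 min RT preincubation; stimulus gardiquimod 7.5 μM / R848 15.9 μM / ODN2006 5 nM respectively; 22 h, 37 °C; SEAP detected colorimetrically.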

In the next assay the target is T2, human TLR7 (Homo sapiens, UniProt Q9NYK1).
T2 construct: host or cells: HEK-Blue cells
T2 sequence (Q9NYK1 27-1049): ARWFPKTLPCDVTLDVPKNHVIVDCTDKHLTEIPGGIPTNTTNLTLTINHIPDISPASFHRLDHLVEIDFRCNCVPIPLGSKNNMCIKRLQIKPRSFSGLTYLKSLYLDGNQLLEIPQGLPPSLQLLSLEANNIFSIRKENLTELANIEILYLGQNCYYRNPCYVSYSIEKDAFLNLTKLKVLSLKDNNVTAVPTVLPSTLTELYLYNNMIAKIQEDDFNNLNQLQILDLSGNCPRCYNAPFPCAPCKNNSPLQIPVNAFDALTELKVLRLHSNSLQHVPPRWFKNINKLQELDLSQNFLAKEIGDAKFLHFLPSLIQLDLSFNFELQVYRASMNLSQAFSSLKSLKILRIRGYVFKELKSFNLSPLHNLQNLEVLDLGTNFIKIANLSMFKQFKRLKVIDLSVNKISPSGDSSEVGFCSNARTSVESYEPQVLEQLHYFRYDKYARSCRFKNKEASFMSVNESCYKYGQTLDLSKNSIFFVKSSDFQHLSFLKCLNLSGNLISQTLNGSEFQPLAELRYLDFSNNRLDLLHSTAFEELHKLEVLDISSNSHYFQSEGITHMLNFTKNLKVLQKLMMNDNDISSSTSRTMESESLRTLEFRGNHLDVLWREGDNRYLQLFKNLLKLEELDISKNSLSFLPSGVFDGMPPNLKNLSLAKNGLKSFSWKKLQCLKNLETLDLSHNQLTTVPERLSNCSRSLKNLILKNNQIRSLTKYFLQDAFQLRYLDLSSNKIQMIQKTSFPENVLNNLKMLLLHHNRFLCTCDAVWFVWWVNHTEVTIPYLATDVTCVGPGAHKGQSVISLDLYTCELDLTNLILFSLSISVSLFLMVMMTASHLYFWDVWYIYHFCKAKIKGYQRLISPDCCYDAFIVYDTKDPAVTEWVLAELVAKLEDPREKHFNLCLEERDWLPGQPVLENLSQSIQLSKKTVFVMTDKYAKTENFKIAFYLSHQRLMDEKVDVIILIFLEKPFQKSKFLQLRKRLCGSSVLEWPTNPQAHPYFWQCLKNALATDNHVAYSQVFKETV
Put plainly: TLR7 inhibition reporter assay (HEK-Blue SEAP reporter). The settings on record: HEK-Blue cells overexpressing human TLR7; gardiquimod 7.5 μM; 22 hour incubation. The method, boiled down:
as §1

Another assay concerns the target T3, human TLR9 (Homo sapiens, UniProt Q9NR96).
T3 construct: host or cells: HEK-Blue cells
T3 sequence (Q9NR96 26-1032): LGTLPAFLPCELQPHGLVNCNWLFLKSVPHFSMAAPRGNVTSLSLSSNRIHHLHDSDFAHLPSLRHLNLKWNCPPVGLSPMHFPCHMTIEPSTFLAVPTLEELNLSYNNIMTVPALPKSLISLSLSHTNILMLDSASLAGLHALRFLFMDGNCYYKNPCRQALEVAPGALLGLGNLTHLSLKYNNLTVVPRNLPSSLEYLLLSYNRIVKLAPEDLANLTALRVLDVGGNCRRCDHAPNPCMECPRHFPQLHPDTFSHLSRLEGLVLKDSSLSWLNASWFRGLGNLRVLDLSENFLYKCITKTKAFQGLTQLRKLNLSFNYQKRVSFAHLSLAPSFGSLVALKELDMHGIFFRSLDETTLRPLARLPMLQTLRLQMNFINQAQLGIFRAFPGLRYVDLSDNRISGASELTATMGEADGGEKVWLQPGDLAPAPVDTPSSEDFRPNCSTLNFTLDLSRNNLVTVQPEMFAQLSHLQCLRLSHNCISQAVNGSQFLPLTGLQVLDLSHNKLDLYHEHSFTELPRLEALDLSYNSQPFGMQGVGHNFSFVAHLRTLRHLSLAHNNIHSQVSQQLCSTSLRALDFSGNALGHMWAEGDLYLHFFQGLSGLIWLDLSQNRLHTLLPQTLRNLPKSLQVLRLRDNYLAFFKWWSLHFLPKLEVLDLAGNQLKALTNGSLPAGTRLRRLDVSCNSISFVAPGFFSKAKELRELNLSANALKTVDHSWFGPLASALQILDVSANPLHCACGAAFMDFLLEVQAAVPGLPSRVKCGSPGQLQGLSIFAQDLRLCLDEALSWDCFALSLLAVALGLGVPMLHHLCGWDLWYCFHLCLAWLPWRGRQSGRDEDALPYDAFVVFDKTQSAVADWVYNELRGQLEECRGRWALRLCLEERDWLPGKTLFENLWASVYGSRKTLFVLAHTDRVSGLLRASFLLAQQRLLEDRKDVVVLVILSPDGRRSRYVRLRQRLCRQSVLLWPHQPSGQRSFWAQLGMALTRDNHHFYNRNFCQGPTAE
Nature of the assay: TLR9 inhibition reporter assay (HEK-Blue SEAP reporter). The settings on record: HEK-Blue cells overexpressing human TLR9; ODN2006 5 nM; 22 hour incubation. The method, boiled down: as §1

As for `COc1ccc(-c2[nH]c3ccc(N4CCN(C5CCN(C)CC5)CC4)cc3c2C(C)C)cc1OC` [Example 162, 2-(3,4-dimethoxyphenyl)-3-isopropyl-5-(4-(1-methylpiperidin-4-yl)piperazin-1-yl)-1H-indole], the concentration for half-maximal inhibition (IC50) on human TLR8 stood at 0.0079 µM; at human TLR7 it was 0.03 µM; against human TLR9, 0.935 µM.

In the case of `CCc1c(-c2ccc(OC)c(OC)c2)[nH]c2ccc(N3CCN(C4CCN(CC(C)C)CC4)CC3)cc12` [Example 177, 2-(3,4-dimethoxyphenyl)-3-ethyl-5-(4-(1-isobutylpiperidin-4-yl)piperazin-1-yl)-1H-indole], the IC50 against human TLR8 worked out at 0.011 µM; at human TLR7, 0.166 µM; against human TLR9, 1.54 µM.

Consider `CCc1c(-c2ccc(OC)c(OC)c2)[nH]c2ccc(N3CCN(C4CC(C)(C)NC(C)(C)C4)CC3)cc12` [Example 176, 2-(3,4-dimethoxyphenyl)-3-ethyl-5-(4-(2,2,6,6-tetramethylpiperidin-4-yl)piperazin-1-yl)-1H-indole], for which the results for the IC50 against human TLR8, at human TLR7 and on human TLR9 were 0.028 µM, 0.068 µM and 0.866 µM, respectively.

For the compound `COc1ccc(-c2[nH]c3ccc(N4CCN(C5CCN(CC(C)C)CC5)CC4)cc3c2C)cc1OC` [Example 170, 2-(3,4-dimethoxyphenyl)-5-(4-(1-isobutylpiperidin-4-yl)piperazin-1-yl)-3-methyl-1H-indole], the IC50 on human TLR8 was determined as 48.4 µM; against human TLR7 it was 19.1 µM; against human TLR9 it was 0.465 µM.

In the case of `COc1ccc(-c2[nH]c3ccc(N4CCC(NCCN5CCOCC5)CC4)cc3c2C(C)C)cc1OC` [Example 86, 1-(2-(3,4-dimethoxyphenyl)-3-isopropyl-1H-indol-5-yl)-N-(2-morpholinoethyl)piperidin-4-amine], the values for the IC50 on human TLR8, at human TLR7 and against human TLR9 were 0.0048 µM, 0.041 µM and 2.8 µM, respectively.

On to `CCc1c(-c2ccc(OC)c(OC)c2)[nH]c2ccc(N3CCN(C4CCN(C)CC4)CC3(C)C)cc12` [Example 172, 2-(3,4-dimethoxyphenyl)-5-(2,2-dimethyl-4-(1-methylpiperidin-4-yl)piperazin-1-yl)-3-ethyl-1H-indole], for which the concentration for half-maximal inhibition (IC50) is 0.131 µM against human TLR8, 0.096 µM against human TLR7 and 0.478 µM against human TLR9.

Take `COc1ccc(-c2[nH]c3ccc(N4CC5(CCCNC5)C4)cc3c2C(C)C)cc1OC` [Example 136, 2-(2-(3,4-dimethoxyphenyl)-3-isopropyl-H-indol-5-yl)-2,6-diazaspiro[3.5]nonane]: the IC50 against human TLR8 was found to be 0.035 µM; on human TLR7, 0.542 µM; against human TLR9, 2.65 µM.

Turning to `CCc1c(-c2ccnc(C)c2)[nH]c2ccc(N3CCN(C4CCN(C)CC4)CC3)cc12` [Example 139, 3-ethyl-5-(4-(1-methylpiperidin-4-yl)piperazin-1-yl)-2-(2-methylpyridin-4-yl)-1H-indole], the results for the IC50 on human TLR8, against human TLR7 and on human TLR9 were 1.07 µM, 2.76 µM and 0.157 µM, respectively.

Regarding `Cc1c(-c2ccnc3[nH]ccc23)[nH]c2ccc(N3CCN(C4CCN(C(C)C)CC4)CC3)cc12` [Example 151, 4-(5-(4-(1-isopropylpiperidin-4-yl)piperazin-1-yl)-3-methyl-1H-indol-2-yl)-1H-pyrrolo[2,3-b]pyridine], the 50% inhibitory concentration (IC50) at human TLR8 was 47.5 µM; against human TLR7 it was 4.23 µM; against human TLR9, 0.327 µM.

`CNCCN1CCN(c2ccc3[nH]c(-c4ccc(OC)c(OC)c4)c(C(C)C)c3c2)CC1` [Example 127, 2-(4-(2-(3,4-dimethoxyphenyl)-3-isopropyl-1H-indol-5-yl)piperazin-1-yl)-N-methylethanamine]: the figures for the IC50 on human TLR8, at human TLR7 and against human TLR9 were 0.015 µM, 0.045 µM and 6.32 µM, respectively.

As for `Cc1cc2[nH]c(-c3ccnc4[nH]ncc34)c(C(C)C)c2cc1N1CCN(C2CCN(C(C)C)CC2)CC1` [Example 175, 4-(3-isopropyl-5-(4-(1-isopropylpiperidin-4-yl)piperazin-1-yl)-6-methyl-1H-indol-2-yl)-1H-pyrazolo[3,4-b]pyridine], the half-inhibitory concentration (IC50) was determined as 0.011 µM at human TLR8, 0.0075 µM against human TLR7 and 0.261 µM against human TLR9.

As for `CNCCNC1CCC(Nc2ccc3[nH]c(-c4ccc(OC)c(OC)c4)c(C(C)C)c3c2)CC1` (single isomer, unassigned) [Example 30, N1-(2-(3,4-dimethoxyphenyl)-3-isopropyl-1H-indol-5-yl)-N4-(2-(methylamino)ethyl)cyclohexane-1,4-diamine], the IC50 was determined as 0.234 µM on human TLR8, 0.434 µM at human TLR7 and 0.281 µM on human TLR9.

`COc1ccc(-c2[nH]c3ccc(N4CCC(N5CCN(C(C)C)CC5)CC4)cc3c2C(C)C)cc1OC` [Example 85, 2-(3,4-dimethoxyphenyl)-3-isopropyl-5-(4-(4-isopropylpiperazin-1-yl)piperidin-1-yl)-1H-indole]: the IC50 against human TLR8 amounted to 0.016 µM; at human TLR7, 0.023 µM; against human TLR9, 0.637 µM.
